{"source": "patent US9616089B2", "about": "“Polymeric synthetic antidote” (Universite de Liege, priority 2013, dated 2017)", "key": {"[1]": {"system": "UFH", "test": "Dose-response curve for UFH neutralization in human blood plasma, aPTT bioassay", "format": "biochemical", "details": "UFH 2 μg/mL in plasma, polymer 1 to 3 μg/mL", "protocol": "In view to assess a possible difference in affinity between polymers of formula (I) and heparin versus protamine/heparin, dose-response curves were established, corresponding to a progressive titration of heparin action by increasing concentration of the polymers of formula (I) with aPPT bioassay (FIG. 5). This in vitro study was conducted adopting a fixed plasma concentration of UFH of 2 μg/mL added before the incubation with the polymers of formula (I). The concentration of the polymers of formula (I) was varied from 1 to 3 μg/mL. The mean and standard deviations (SD) were calculated from two independent experiments performed on senior blood donors."}, "[2]": {"system": "UFH", "test": "Neutralization of UFH in whole blood of patients heparinized in vivo (extracorporeal circulation), aPTT test", "format": "biochemical, human", "protocol": "In example 10, several (co-)polymers of formula (I), namely two linear homopolymers of PDMAEMA (samples CS023 and CK169) and two copolymers of PDMAEMA and PEO (samples A61 and BA003) were tested for neutralization of UFH injected on human patients subjected to ExtraCorporeal Circulation (ECC) during a cardiovascular surgical operation. According to the general practice in this clinical context, a fixed dose of 3 mg/kg of UFH is administrated to these patients by intravenous injection.\n10 min after this dose injection of UFH, 40 ml of whole blood were collected from the patients. In vitro UFH neutralization was conducted less than 1 hour after blood collection adding one of the (co-)polymers listed in Table 7. The concentration of these polymers ranged from 3.4 to 45 μg/mL in whole blood. A special care was taken during the addition of (co-)polymer solutions in view to ensure a rapid and reproducible homogenization of these (co-)polymers in whole human blood (rapid injection of the solution in whole human blood, i.e. in less than 1 s), followed directly by 3 up-and-down aspirations to avoid any risk of local over-concentrations.\nAfter a 15 minutes incubation period performed at 37° C. under lateral agitation the aPTT test was carried out immediately in order to determine the residual UFH activity. The neutralization effectiveness of the different homopolymers and copolymers and of protamine was estimated from the determination of CMax, i.e. the minimal polymer concentration giving rise to a maximum neutralization of UFH. Therapeutic index (Thind) of the (co-)polymers was established as the drug concentration window giving a pharmacological effect without impairing the coagulation pathways. The mean and standard deviations corresponding to these 3 parameters were calculated from 4 independent experiments performed on senior blood patients."}, "[3]": {"system": "UFH", "test": "Neutralization of UFH in human plasma, aPTT test", "format": "biochemical", "details": "for percentage of neutralization of UFH, mean: antidote 2 μg/mL, plasma spiked with UFH 2 μg/mL, 15 min 37°C", "protocol": "(§1) Activated partial thromboplastin time (aPTT) and anti-Xa activity were measured on the freshly isolated plasma using respectively a coagulometer (BCT; Dade Behring—Siemens) and a Microplate reader (Anthos HT3, type 12600). STA-C.K. Prest*2 kit was used. Coatest kit was used to evaluate the concentration of low molecular weight heparin in blood plasma following the reactions depicted below: LMW Heparin+AT→[LMW Heparin·AT] [LMW Heparin·AT]+FXa(excess)→[LMW Heparin·AT·FXa] 2a. S-2222+FXa→Peptide+pNA (yellow)+FXa(residual) 2b.\nAll PECs were prepared by addition of 100 μL of heparin (10 μg/mL) to 300 μL of plasma. After a pre-incubation of 5 minutes at 37° C., 100 μL of a stock solution of polymers of formula (I) (10 μg/mL) was added to neutralize heparin. After 15 minutes of interaction 37° C. the aPTT analysis was performed. Anti Xa analysis was evaluated according to a similar procedure, except for the final concentrations of heparin and polymer of formula (I) which were […].\nIn view to assess the pharmacological activity of the polymers of formula (I) to neutralize the action of UFH, polymers of formula (I) were incubated in normal human plasma previously spiked with heparin, analysing afterwards the remaining coagulation activity of plasma using the activated partial thromboplastin time (aPTT) test. This bioassay was indeed typically used to analyse the functionality of the intrinsic pathway of the blood coagulation, using kaolin as synthetic activator of the coagulation. An incubation of 15 min at 37° C. was respected before measuring the aPPT test. The percentage of heparin neutralization in plasma (FIG. 4) was calculated using two different calibration curves of heparin in function of the group age of the donors. Indeed a difference in heparin sensitivity was noticed with aPPT test as a function of the range of age of human donors. Accordingly, two calibration curves of heparin were used, corresponding to the two categories of blood donors: group 1 (average age: 22 years) and group 2 (average age: 52 years)."}, "[4]": {"system": "UFH", "test": "Neutralization of UFH in human plasma measuring factor Xa (chromogenic Coatest Heparin)", "format": "biochemical", "details": "UFH and antidote 0.4 μg/mL, human plasma 15 min 37°C", "protocol": "as §1\nWhere FXa represents factor Xa and S-2222 represents Bz-Ile-Glu-(γ-OR)-Gly-Arg-pNA (CA: 59068-47-2) (SEQ ID No. 1), a chromogenic substrate cleaved by free FXa to peptide (Bz-Ile-Glu-(γ-OR)-Gly-Arg (SEQ ID No. 2)) and pNA (p-nitroaniline). AT represents antithrombin. Heparin binds to AT, causing a change in the conformation of AT to a form that binds to and sequesters the activity of FXa. Addition of a peptide that competes with AT for heparin will increase the concentration of free FXa. Thus, restoration of the activity of FXa, as indicated by the amount of S-2222 converted to peptide and pNA, provides a measure of the ability of a peptide to neutralize the anticoagulant activity of heparin (provided in technical sheet of Instrumentation Laboratory).\nThe assay method was calibrated using standard solutions that contain 0.1 μg/mL of AT and heparin at concentrations ranging from 0.01 to 0.07 μg/mL in buffer/normal human plasma supplied with the Coatest kit. The standard solutions were incubated at 37° C. for 3-4 minutes, after which 100 μL of bovine factor Xa (0.71 nkat) were added to 200 μL of each standard solution. The mixtures were incubated at 37° C. for 30 sec, after which 200 μL of S-2222 (0.2 μmol, 37° C.) were added and the reaction mixtures were incubated at 37° C. for exactly 3 minutes. […] The absorbance was measured at 405 nm. The ability of CLC1 and CLC2 to neutralize the anticoagulant activity of heparin was determined by addition of each polymer to heparin solution, and the assay performed as described above. […]"}, "[5]": {"system": "UFH", "test": "Dose-response UFH neutralization in whole human blood, aPTT test", "format": "biochemical", "details": "Table 4, UFH 2 μg/mL whole blood", "protocol": "In Example 9 several (co-)polymers of formula (I) were tested for neutralization of UFH in whole blood. Dose-response curves were established adopting a fixed concentration of 2 μg/mL UFH added in whole blood collected on sodium citrate. Five minutes after this preconditioning step, UFH neutralization was conducted by adding one of the (co-)polymers listed in Table 4 to 6. The concentration of these polymers was varied from 0.5 to 4 μg/mL in—whole blood. A special care was taken during the addition of the (co-)polymer solution in view to assure a rapid and reproducible homogenization of this solution in whole blood (rapid injection of solution in whole blood, i.e. in less than 1 s), followed directly by 3 up-and-down aspirations to avoid any risk of local over-concentrations. The total dilution arising from the UHF and polymer solutions represents only 10% to avoid any interference with coagulation pathways.\nAfter a 15 minutes incubation period performed at 37° C. under lateral agitation the aPTT test was carried out immediately afterwards in order to determine the residual UFH activity. […] The mean and standard deviations were calculated from two independent experiments performed on senior blood donors initially collected under sodium citrate."}, "[6]": {"system": "LMWH", "test": "Neutralization of LMWH in human plasma measuring factor Xa (chromogenic Coatest Heparin)", "format": "biochemical", "details": "LMWH and antidote 0.4 μg/mL each, human plasma 15 min 37°C", "protocol": "as §1, with “2b. […]” for “2b.”\nThe assay method was calibrated using standard solutions that contain 0.1 μg/mL of AT and heparin at concentrations ranging from 0.01 to 0.07 μg/mL in buffer/normal human plasma supplied with the Coatest kit. […] The absorbance was measured at 405 nm. The ability of CLC1 and CLC2 to neutralize the anticoagulant activity of heparin was determined by addition of each polymer to heparin solution, and the assay performed as described above.\nThe complexation of the synthetic polymers of formula (I) with low molecular weight heparin (LMWH) was assessed in vitro in the same experimental conditions as for UFH, thus using a concentration of heparin and polymers of formula (I) of 0.4 μg/mL. After their incubation of 15 minutes at 37° C., the remaining activity of factor Xa is recorded with the chromogenic assay Coatest Heparin."}}}
{"substance": "Protamine", "values": [{"measurement": "concentration at the maximum of the heparin neutralization curve", "setting": "[1]", "result": "around 1.6 μg/mL"}, {"measurement": "aPTT at CMax", "setting": "[2]; blood of patients given 3 mg/kg UFH", "result": 42.7, "unit": "s"}, {"measurement": "CMax", "setting": "[2]; minimal polymer concentration giving maximum neutralization of UFH, patients given 3 mg/kg UFH", "result": 22.5, "unit": "µg/mL"}, {"measurement": "aPTT response", "setting": "[2]; protamine concentration of 45 μg/mL", "result": "below 70 s"}, {"measurement": "percentage of neutralization of heparin", "setting": "[3]; 15 minutes after addition of the polymers, human plasma (FIG. 4)", "result": 75, "unit": "%"}, {"measurement": "percentage of neutralization of UFH, mean", "setting": "[3]; Group 1 donors (average age 22 years)", "result": 75.0, "unit": "%"}, {"measurement": "percentage of neutralization of UFH, mean", "setting": "[3]; Group 2 donors (average age 52 years)", "result": 76.1, "unit": "%"}, {"measurement": "percentage of inhibition of factor Xa, mean", "setting": "[4]; Test number 1", "result": 88.1, "unit": "%"}, {"measurement": "percentage of inhibition of factor Xa, mean", "setting": "[4]; Test number 2", "result": 100.0, "unit": "%"}, {"measurement": "mean inhibition of factor Xa", "setting": "[4]; mean of two independent experiments", "result": 94.0, "unit": "%"}, {"measurement": "CMax", "setting": "[5]; minimal polymer concentration giving saturation in UFH neutralization", "result": 3.00, "unit": "µg/mL"}, {"measurement": "IC50", "setting": "[5]; polymer concentration leading to 50% of maximal capacity to neutralize UFH", "result": 1.05, "unit": "µg/mL"}, {"measurement": "percentage of inhibition of factor Xa (inhibition of heparin), mean", "setting": "[6]", "result": 31.0, "unit": "%"}]}
